Data taken from patent US20220204498A1, “PYRIDO-PYRIMIDINYL COMPOUNDS AND METHODS OF USE” (Genentech, Inc., priority 2019, published 2022).
Where a name gives a salt, the structure may show the parent alone.

target: T1, IRE1α (Homo sapiens, UniProt O75460, D688N); assay: IRE1α TR-FRET competition binding assay (IRE1α HTRF); conditions: His-tagged IRE1α kinase dead construct (KR, D688N) 0.25 nM; Alexa fluor 647-labeled ATP competitive probe 2 nM; one hour at room temperature; read-out: IRE1α (alpha) HTRF (IC50)
T1 construct: containing the kinase and RNase domains (KR, AA G547-1L977, D688N); made in house; host or cells: Sf9 insect cells
T1 sequence (O75460 547-977 D688N): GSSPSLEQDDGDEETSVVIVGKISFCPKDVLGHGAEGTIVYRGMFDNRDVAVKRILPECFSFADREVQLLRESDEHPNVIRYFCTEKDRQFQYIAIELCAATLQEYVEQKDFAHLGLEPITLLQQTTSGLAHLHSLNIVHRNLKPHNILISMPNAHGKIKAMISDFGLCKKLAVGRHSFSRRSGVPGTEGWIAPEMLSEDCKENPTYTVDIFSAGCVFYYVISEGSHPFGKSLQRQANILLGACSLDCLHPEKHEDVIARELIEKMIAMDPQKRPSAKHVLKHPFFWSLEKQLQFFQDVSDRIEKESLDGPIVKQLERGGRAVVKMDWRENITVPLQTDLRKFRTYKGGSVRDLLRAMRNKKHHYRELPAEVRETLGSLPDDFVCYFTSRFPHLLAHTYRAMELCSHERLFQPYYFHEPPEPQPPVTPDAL
Procedure: Example 59. IRE1α TR-FRET Competition Binding Assay
To determine the affinity of compound binding to the kinase domain of IRE1α, a time-resolved fluorescence resonance energy transfer (TR-FRET) competition assay was used.
A His-tagged IRE1α kinase dead construct containing the kinase and RNase domains (KR, AA G547-1L977, D688N) was expressed in Sf9 insect cells. The purified protein (final concentration 0.25 nM) was pre-incubated with anti-His Europium labeled antibody (Life Technologies PV5596, final concentration 2 nM) for one hour at 4° C. in TR-FRET Assay Buffer (50 mM HEPES, pH 7.5, 10 mM MgCl2, 0.083 mM Brij 35, 1 mM DTT, and 0.1% bovine gamma globulin) prior to addition to test compounds. An Alexa fluor 647-labeled probe based on an ATP competitive inhibitor was added to a final concentration of 2 nM. Reactions were carried out for one hour at room temperature in a final volume of 20 μL in 384 well white ProxiPlates (Perkin Elmer 6008289). Binding of the probe to the IRE1α protein was detected in an Envision instrument (PerkinElmer) equipped with a TRF laser option and a LANCE/Delfia Dual/Bias D400/D630 mirror (Ex 347 nm, 1st Em 665 nm, 2nd Em 615 nm).

SMILES	IC50
Cc1cc(-c2ccc(NS(=O)(=O)Cc3ccc(F)cc3)c(F)c2F)nc2cnc(N[C@H]3CC[C@H](N(C)C)CC3)nc12 [Compound 132, N-(4-(2-(((1,4-trans)-4-(Dimethylamino)cyclohexyl)amino)-8-methylpyrido[3,2-d]pyrimidin-6-yl)-2,3-difluorophenyl)-1-(4-fluorophenyl)methanesulfonamide]	0.23 nM
CCc1cc(-c2ccc(NS(=O)(=O)CCC(F)(F)F)c(F)c2)nc2cnc(N[C@@H]3CNC[C@@H](F)C3)nc12 [Compound 119, N-(4-(8-Ethyl-2-(((3S,5S)-5-fluoropiperidin-3-yl)amino)pyrido[3,2-d]pyrimidin-6-yl)-2-fluorophenyl)-3,3,3-trifluoropropane-1-sulfonamide formate]	0.39 nM
O=S(=O)(Cc1ccccc1)Nc1c(F)cc(-c2cc3cnc(N[C@@H]4CNC[C@@H](F)C4)nc3nc2OC2CCOC2)c(F)c1F (single isomer, unassigned) [Compound 105]	0.39 nM
CCc1cc(-c2ccc(NS(=O)(=O)Cc3ccc(F)cc3)nc2OC)nc2cnc(N[C@H]3CC[C@H](N(C)C)CC3)nc12 [Compound 142, N-(5-(2-(((1,4-trans)-4-(Dimethylamino)cyclohexyl)amino)-8-ethylpyrido[3,2-d]pyrimidin-6-yl)-6-methoxypyridin-2-yl)-1-(4-fluorophenyl)methanesulfonamide]	0.14 nM
CCc1cc(-c2ccc(NS(=O)(=O)Cc3ccccc3)c(F)c2)nc2cnc(N[C@@H]3CNC[C@@H](F)C3)nc12 [Compound 122, N-(4-(8-Ethyl-2-(((3S,5S)-5-fluoropiperidin-3-yl)amino)pyrido[3,2-d]pyrimidin-6-yl)-2-fluorophenyl)-1-phenylmethanesulfonamide formate]	0.2 nM
CCCS(=O)(=O)Nc1ccc(-c2cc(C)c3nc(N[C@H]4CC[C@H](N(C)C)CC4)ncc3n2)cc1F [Compound 112, N-(4-(2-(((1,4-trans)-4-(Dimethylamino)cyclohexyl)amino)-8-methylpyrido[3,2-d]pyrimidin-6-yl)-2-fluorophenyl)propane-1-sulfonamide formate]	0.32 nM
Cc1cc(-c2ccc3c(c2)CCS(=O)(=O)N3)nc2cnc(N[C@H]3CC[C@H](N(C)C)CC3)nc12 [Compound 151, 6-(2-(((1,4-trans)-4-(Dimethylamino)cyclohexyl)amino)-8-methylpyrido[3,2-d]pyrimidin-6-yl)-3,4-dihydro-1H-benzo[c][1,2]thiazine 2,2-dioxide]	39 nM
CCc1cc(-c2ccc(NS(=O)(=O)Cc3ccc(S(C)(=O)=O)cc3)c(F)c2)nc2cnc(N[C@H]3CC[C@H](N(C)C)CC3)nc12 [Compound 152, N-(4-(2-(((1,4-trans)-4-(Dimethylamino)cyclohexyl)amino)-8-ethylpyrido[3,2-d]pyrimidin-6-yl)-2-fluorophenyl)-1-(4-(methylsulfonyl)phenyl)methanesulfonamide]	0.12 nM
CC(Oc1nc2nc(N[C@@H]3CNC[C@@H](F)C3)ncc2cc1-c1ccc(NS(=O)(=O)Cc2ccccc2)c(F)c1F)C(F)F (single isomer, unassigned) [Compound 103]	1.1 nM
CN(C)[C@H]1CC[C@H](Nc2ncc3nc(-c4ccc(NS(=O)(=O)c5ccccc5Cl)c(F)c4)cc(C(F)F)c3n2)CC1 [Compound 143, 2-Chloro-N-[(1,4-trans)-4-[8-(difluoromethyl)-2-[[4-(dimethylamino)cyclohexyl]amino]pyrido[3,2-d]pyrimidin-6-yl]-2-fluoro-phenyl]benzenesulfonamide]	0.2 nM
Cc1cc(-c2ccc(NS(=O)(=O)Cc3ccccc3)c(F)c2)nc2cnc(N[C@@H]3CNC[C@@H](F)C3)nc12 [Compound 106, N-(2-Fluoro-4-(2-(((3S,5S)-5-fluoropiperidin-3-yl)amino)-8-methylpyrido[3,2-d]pyrimidin-6-yl)phenyl)-1-phenylmethanesulfonamide]	0.3 nM
Cc1cc(-c2ccc(NS(=O)(=O)c3cccnc3C(F)(F)F)c(F)c2)nc2cnc(N[C@H]3CC[C@H](N(C)C)CC3)nc12 [Compound 157, N-[4-[2-[[(1,4-trans)-4-(Dimethylamino)cyclohexyl]amino]-8-methyl-pyrido[3,2-d]pyrimidin-6-yl]-2-fluoro-phenyl]-2-(trifluoromethyl)pyridine-3-sulfonamide]	0.23 nM
Cc1cc(-c2ccc(NS(=O)(=O)c3cnccc3C(F)(F)F)c(F)c2)nc2cnc(N[C@H]3CC[C@H](N(C)C)CC3)nc12 [Compound 156, N-[4-[2-[[(1,4-trans)-4-(Dimethylamino)cyclohexyl]amino]-8-methyl-pyrido[3,2-d]pyrimidin-6-yl]-2-fluoro-phenyl]-4-(trifluoromethyl)pyridine-3-sulfonamide]	0.18 nM
Cc1cc(-c2ccc(NS(=O)(=O)c3cccnc3)c(F)c2)nc2cnc(N[C@H]3CC[C@H](N(C)C)CC3)nc12 [Compound 154, N-[4-[2-[[(1,4-trans)-4-(Dimethylamino)cyclohexyl]amino]-8-methyl-pyrido[3,2-d]pyrimidin-6-yl]-2-fluoro-phenyl]pyridine-3-sulfonamide]	0.21 nM
CCc1cc(-c2ccc(NS(=O)(=O)c3ccccc3F)nc2C)nc2cnc(N[C@H]3CC[C@H](N(C)C)CC3)nc12 [Compound 146, N-(5-(2-(((1,4-trans)-4-(dimethylamino)cyclohexyl)amino)-8-ethylpyrido[3,2-d]pyrimidin-6-yl)-6-methylpyridin-2-yl)-2-fluorobenzenesulfonamide]	0.21 nM
CCc1cc(-c2ccc(NS(=O)(=O)c3ccccc3Cl)nc2OC)nc2cnc(N[C@H]3CC[C@H](N(C)C)CC3)nc12 [Compound 141, 2-Chloro-N-(5-(2-(((1,4-trans)-4-(dimethylamino)cyclohexyl)amino)-8-ethylpyrido[3,2-d]pyrimidin-6-yl)-6-methoxypyridin-2-yl)benzenesulfonamide]	0.43 nM
Cc1cc(-c2ccc(NS(=O)(=O)Cc3ccc(F)cc3F)c(F)c2)nc2cnc(N[C@@H]3CNC[C@@H](F)C3)nc12 [Compound 115, 1-(2,4-Difluorophenyl)-N-(2-fluoro-4-(2-(((3S,5S)-5-fluoropiperidin-3-yl)amino)-8-methylpyrido[3,2-d]pyrimidin-6-yl)phenyl)methanesulfonamide]	0.26 nM
Cc1cc(-c2ccc(NS(=O)(=O)Cc3ccc(C#N)cc3)c(F)c2)nc2cnc(N[C@@H]3CNC[C@@H](F)C3)nc12 [Compound 116, 1-(4-Cyanophenyl)-N-(2-fluoro-4-(2-(((3S,5S)-5-fluoropiperidin-3-yl)amino)-8-methylpyrido[3,2-d]pyrimidin-6-yl)phenyl)methanesulfonamide formate]	0.13 nM
Cc1cc(-c2ccc(NS(=O)(=O)Cc3ccc(F)cc3)c(F)c2)nc2cnc(N[C@H]3CC[C@H](N(C)C)CC3)nc12 [Compound 129, N-(4-(2-(((1,4-trans)-4-(Dimethylamino)cyclohexyl)amino)-8-methylpyrido[3,2-d]pyrimidin-6-yl)-2-fluorophenyl)-1-(4-fluorophenyl)methanesulfonamide]	0.08 nM
Cc1cc(-c2ccc(NC(=O)CC(C)C)c(F)c2)nc2cnc(N[C@H]3CC[C@H](N(C)C)CC3)nc12 [Compound 127, N-(4-(2-(((1,4-trans)-4-(Dimethylamino)cyclohexyl)amino)-8-methylpyrido[3,2-d]pyrimidin-6-yl)-2-fluorophenyl)-3-methylbutanamide]	140 nM
CCc1cc(-c2ccc(NS(=O)(=O)c3ccccc3Cl)nc2C)nc2cnc(N[C@H]3CC[C@H](N(C)C)CC3)nc12 [Compound 134, 2-Chloro-N-(5-(2-(((1,4-trans)-4-(dimethylamino)cyclohexyl)amino)-8-ethylpyrido[3,2-d]pyrimidin-6-yl)-6-methylpyridin-2-yl)benzenesulfonamide]	0.33 nM
Cc1cc(-c2ccc(NS(=O)(=O)CCC(F)(F)F)c(F)c2)nc2cnc(N[C@H]3CC[C@H](N(C)C)CC3)nc12 [Compound 107, N-(4-(2-(((1r,4r)-4-(Dimethylamino)cyclohexyl)amino)-8-methylpyrido[3,2-d]pyrimidin-6-yl)-2-fluorophenyl)-3,3,3-trifluoropropane-1-sulfonamide]	0.2 nM
O=S(=O)(Cc1ccccc1)Nc1ccc(-c2ccc3nc(N[C@@H]4CNC[C@@H](F)C4)ncc3n2)cc1F [Compound 100, N-(2-Fluoro-4-(2-(((3S,5S)-5-fluoropiperidin-3-yl)amino)pyrido[3,2-d]pyrimidin-6-yl)phenyl)-1-phenylmethanesulfonamide]	0.89 nM
Cc1cc(-c2ccc(NS(=O)(=O)CCC(F)(F)F)c(Cl)c2)nc2cnc(N[C@H]3CC[C@H](N(C)C)CC3)nc12 [Compound 120, N-(2-Chloro-4-(2-(((1,4-trans)-4-(dimethylamino)cyclohexyl)amino)-8-methylpyrido[3,2-d]pyrimidin-6-yl)phenyl)-3,3,3-trifluoropropane-1-sulfonamide]	0.25 nM
Cc1cc(-c2cc(F)c(NS(=O)(=O)Cc3ccc(F)cc3)c(F)c2F)nc2cnc(N[C@H]3CC[C@H](N(C)C)CC3)nc12 [Compound 153, N-(4-(2-(((1,4-trans)-4-(Dimethylamino)cyclohexyl)amino)-8-methylpyrido[3,2-d]pyrimidin-6-yl)-2,3,6-trifluorophenyl)-1-(4-fluorophenyl)methanesulfonamide]	0.16 nM
